This is an account of results in patent US11649246B2, “Salts of 4-amino-N-(l-((3-chloro-2-fluorophenyl)amino)-6-methylisoquinolin-5-yl)thieno[3,2-D]pyrimidine-7-carboxamide, and crystalline forms thereof” (Hanmi Pharm. Co., Ltd., priority 2017, dated 2023).

Where a name gives a salt, the structure may show the parent alone.

Assay type in all cases: physicochemical
The nature of data set [1]: Stress stability test at 60° C. The settings on record: for physicochemical stability (summary in words): up to 4 weeks. The procedure: In order to compare physicochemical stability among the crystalline form prepared in Example 3 (crystalline Formula (I) bis-hydrochloride Form I) and 16 (Formula (I) crystalline free base), and the amorphous form prepared in Comparative Example 1, a stress stability test was conducted by storing samples at 60° C., for different periods of time up to 4 weeks.

Data set [2] in a line: Salt screening: solubility by HPLC according to KP, USP and EP general chapters. The conditions noted are these: water, Example 1B salts. As for the experimental part: For each Example 1B salt, a mixture of 40 mL (20 v/w) of a suitable solvent and 2 g Formula (I) free base was formed with agitation at room temperature. The indicated acid (2.2 eq.) was added to the mixture and salt formation was monitored by visual check. The resulting solid bis-acid salt was stirred for 24 hr at room temperature then filtered, and washed with a suitable solvent.
The water content, solubility in water (mg/mL), appearance, salt yield (%) and PXRD results for each of the salts of Example 1B are summarized in Table 4 where “MsOH” refers to methane sulfonic acid; “BsOH” refers to benzenesulfonic acid; “OW” refers to off-white; “W” refers to white; “Cryst” refers to crystalline; and “Amorph” refers to amorphous. Solubility was measured by HPLC according to KP, USP and EP general chapters.

Data set [3] in a line: Hygroscopicity / water content at 25° C. and 75% RH. The settings on record: for Water Content (%): salt as prepared, before humidity exposure; for water content after hygroscopicity test: 25° C. and 75% RH. The procedure:
Various salt forms of Formula (I) were prepared from Formula (I) free base and characterized by water solubility, PXRD, DSC, DVS and hygroscopicity.

The nature of data set [4]: Water content of Form VI after humidity exposure (conversion to Form I). As for the experimental part: Crystalline Form VI was converted to Form I by two methods. In a first method, Form VI was exposed to a relative humidity of 60% at 25° C. In a second method, Form VI was exposed to a relative humidity of 20% at 21° C.
A further data set is described as follows: pH of aqueous solution. The conditions noted are these: room temperature, Form I. The procedure: Aqueous solution pH was measured by preparing 0.01%, 0.1% and 1% aqueous solutions of Formula (I) bis-hydrochloride and then shaking the solution for 30 minutes at room temperature followed by filtration. The pH of the filtered aqueous solution was measured with a S2K713 Pocket pH meter (ISFETCOM, Japan) according to the method of the Korean Pharmacopoeia.

Data set [5] can be described thus: Hygroscopicity by dynamic vapor sorption (DVS). The conditions noted are these: 25°, Form I. As for the experimental part:
Dynamic vapor sorption (DVS) analysis was performed in a DVS advantage (Surface measurement system, United Kingdom) analyzer at 25° C. with a relative humidity of 0% to 90%. A sample in an amount of 10 mg was placed into a wire-mesh vapor sorption balance pan and then attached to a DVS advantage dynamic vapor sorption balance via surface measurement systems. […] Upon completion of the sorption cycle, the sample was dried using the same process while maintaining a relative humidity of 0%. The changes in the sample weight during the adsorption/desorption cycle (repeated 3 times) were recorded and the hygroscopicity of the sample was measured. DVS isotherm diagrams are presented in FIGS. 1, 3, 6, 10, 13, 16 and 19 where Target PP (%) refers to relative humidity, “SORP” refers to adsorption and “DESORP” refers to desorption.
Hygroscopicity was measured by DVS where the DVS curve for Formula (I) bis-hydrochloride was recorded in a DVS Advantage I analyzer (SMS, United Kingdom). The DVS was operated over 3 cycles for measurement of the surface adsorption effects of water, from 0% RH to 90% RH at 25°.

Data set [6] in a line: Solubility of bis-hydrochloride Form I by HPLC test and observation test. As for the experimental part:
Solubility was measured by HPLC according to KP, USP and EP general chapters. […] The results of solubility were same between HPLC test and observation test.

Data set [7] is described as follows: Partition / distribution coefficient octanol-water (Sirius T3). The settings on record: for distributed ratio in octanol phase to water phase: ratio to 1. The procedure: The partition coefficient, Log P, was measured with a T3 (Sirius Analytical Instrument Ltd., UK). About 1 mg of Formula (I) bis-hydrochloride was added to a 15 mL GLpKa beaker, dissolved with octanol/150 mM KCl, adjusted to pH 1.8 with 0.5 N HCl, and titrated up to pH 12.2 with 0.5 N KOH. The partition coefficient of the octanol-water system was determined by correcting the difference between titration curves of the blank from the titration curve, by inserting the value of the dissociation constant measured previously.

Data set [8] is described as follows: Dissociation constant (pKa), GLpKa method, Sirius T3. The conditions noted are these: as an aqueous solution, calculated by extrapolation. As for the experimental part:
Based on these pKa values, Formula (I) is believed to be weakly basic compound.
The dissociation, pKa, was measured with a T3 (Sirius Analytical Instrument Ltd., UK). About 1 mg of Formula (I) bis-hydrochloride was transferred to a GLpKa beaker, dissolved with 43% to 53% MDM solution (ISA Water/MeOH/ACN/p-Dioxane=40/20/20/20, Sirius), adjusted to pH 1.8 with 0.5 N HCl, and titrated up to pH 12.2 with 0.5 N KOH. The pKa as an aqueous solution was calculated by extrapolation.

For `Cc1ccc2c(Nc3cccc(Cl)c3F)nccc2c1NC(=O)c1csc2c(N)ncnc12` [Example 16, 4-amino-N-(1-((3-chloro-2-fluorophenyl)amino)-6-methylisoquinolin-5-yl)thieno[3,2-d]pyrimidine-7-carboxamide], the “Purity(%) (A % by HPLC)” value in data set [1] (2 weeks), in data set [1] (7 days) and in data set [1] (Initial) was 99.7% each time. Moreover, the “Total impurities(%) (A % by HPLC)” value in data set [1] (2 weeks), in data set [1] (7 days) and in data set [1] (Initial) was 0.29% throughout. In data set [1] (listed as crystalline form of the free base), the “physicochemical stability (summary in words)” value was “remarkably superior stability over the amorphous form”.

As for `Cc1ccc2c(Nc3cccc(Cl)c3F)nccc2c1NC(=O)c1csc2c(N)ncnc12` [HBr, 4-amino-N-(1-((3-chloro-2-fluorophenyl)amino)-6-methylisoquinolin-5-yl)thieno[3,2-d]pyrimidine-7-carboxamide], in data set [2], the “H2O Solubility” value was determined as 50 µg/mL. Besides, the “Water Content (%)” value in data set [3] turned out to be 2.9%.

On to `Cc1ccc2c(Nc3cccc(Cl)c3F)nccc2c1NC(=O)c1csc2c(N)ncnc12` [Form VI, 4-amino-N-(1-((3-chloro-2-fluorophenyl)amino)-6-methylisoquinolin-5-yl)thieno[3,2-d]pyrimidine-7-carboxamide], for which the water content in data set [4] (after exposure at 21° C. and 20% RH for 3 hours) amounted to 8.0%; in data set [4] (after exposure at 21° C. and 20% RH for 6 hours), 10.4%; in [4] (after exposure at 21° C. and 20% RH for 5 days), 10.1%; in data set [4] (after exposure at 25° C. and 60% RH), 11.3%.

For orientation: logP means a log measure of how a compound divides between an organic and an aqueous phase. Lower therefore signals a more hydrophilic compound. A word on the logD: it is lipophilicity at a set pH, counting ionised and neutral species. Lower therefore signals lower lipophilicity. As to `Cc1ccc2c(Nc3cccc(Cl)c3F)nccc2c1NC(=O)c1csc2c(N)ncnc12` [Formula (I) bis-hydrochloride salt, 4-amino-N-(1-((3-chloro-2-fluorophenyl)amino)-6-methylisoquinolin-5-yl)thieno[3,2-d]pyrimidine-7-carboxamide], the “pH of aqueous solution” value in the data set “pH of aqueous solution” (0.1 mg/mL (0.01%) solution) amounted to 3.9; in “pH of aqueous solution” (1 mg/mL (0.1%) solution) it was 2.6; in “pH of aqueous solution” (10 mg/mL (1%) solution), 1.8. Besides, the “H2O Solubility” value in [2] (listed as HCl) was determined as 120 µg/mL. For the same compound, the results for the “water absorption (DVS)” value in data set [5] (from 0% RH to 20% RH) and in data set [5] (from 0% RH to 90% RH) were “about 9.4%” and “about 14.1%”, respectively. Also, the “water desorption (DVS)” value is on record as “about 8.9%” in data set [5] (from 10% RH to ~0% RH) and “about 5.2%” in [5] (from 90% RH to 10% RH). In [5] (from 20% RH to 90% RH), the “water absorption (DVS), increased to” value came to 14.1%. The “water content after hygroscopicity test” value in data set [3] turned out to be 11.7%. Also, the “Water Content (%)” value in data set [3] and in data set [3] (listed as HCl) was 6.2% in each case. Further, the “Solubility Observation” value in [6] (ACN) was “practically in soluble”; in data set [6] (DMSO), “freely soluble”; in [6] (Dichloromethane), “practically in soluble”; in data set [6] (Ethanol) it was “very slightly soluble”; in data set [6] (Ethyl acetate) it was “practically in soluble”; in [6] (Ethyl ether), “practically in soluble”. In addition, the “Solubility Observation” value in data set [6] (Methanol) is “sparingly soluble”; in [6] (Water), “practically insoluble”; in data set [6] (buffer over pH 3.0), “practically insoluble”; in [6] (n-Hexane), “practically in soluble”; in data set [6] (pH 1.2 buffer), “very slightly soluble”; in [6] (pH 2.0 buffer), “very slightly soluble”. In addition, the “distributed ratio in octanol phase to water phase” value in [7] (neutral state at pH 11 or higher) is reported as “about 20,000”; in [7] (pH 7.4), “about 200,000”. The same compound displayed a logP in data set [7] (octanol/water (octanol/150 mM KCl), neutral state at pH 11 or higher) of 4.33. The compound also yielded a logD in [7] (octanol/water, pH 7.4) of 5.24. For the same compound, the pKa1 in data set [8] is listed as 3.86. The pKa2 in data set [8] is listed as 4.73. Also, the pKa3 in data set [8] and in [8] (listed as Formula (I) bis-hydrochloride) was 10.30 throughout.

Turning to `Cc1ccc2c(Nc3cccc(Cl)c3F)nccc2c1NC(=O)c1csc2c(N)ncnc12` [Formula (I) bis-hydrogensulfate salt, 4-amino-N-(1-((3-chloro-2-fluorophenyl)amino)-6-methylisoquinolin-5-yl)thieno[3,2-d]pyrimidine-7-carboxamide], the “H2O Solubility” value in [2] (listed as H2SO4) was 160 µg/mL. Besides, the “water content after hygroscopicity test” value in [3] worked out at 17.1%. Further, the “Water Content (%)” value in data set [3] and in data set [3] (listed as H2SO4) was 2.6% in each case.

`Cc1ccc2c(Nc3cccc(Cl)c3F)nccc2c1NC(=O)c1csc2c(N)ncnc12` [Comparative Example 1, 4-amino-N-(1-((3-chloro-2-fluorophenyl)amino)-6-methylisoquinolin-5-yl)thieno[3,2-d]pyrimidine-7-carboxamide]: the “Purity(%) (A % by HPLC)” value in data set [1] (2 weeks) amounted to 99.5%; in data set [1] (4 weeks), 99.3%; in [1] (1 day), 99.7%; in data set [1] (3 days), 99.7%; in [1] (7 days), 99.6%; in [1] (Initial) it was 99.7%. Besides, the “Total impurities(%) (A % by HPLC)” value in data set [1] (2 weeks) is on record as 0.485%; in [1] (4 weeks), 0.68%; in [1] (1 day), 0.30%; in data set [1] (3 days), 0.31%; in [1] (7 days), 0.38%; in [1] (Initial), 0.32%. For the same compound, the “physicochemical stability (summary in words)” value in data set [1] (listed as amorphous form) is on record as “change of purity after 7 days”.

For the compound `Cc1ccc2c(Nc3cccc(Cl)c3F)nccc2c1NC(=O)c1csc2c(N)ncnc12` [MsOH, 4-amino-N-(1-((3-chloro-2-fluorophenyl)amino)-6-methylisoquinolin-5-yl)thieno[3,2-d]pyrimidine-7-carboxamide], the “H2O Solubility” value in [2] was determined as 50 µg/mL. Besides, the “Water Content (%)” value in [3] turned out to be 2.1%.

On to `Cc1ccc2c(Nc3cccc(Cl)c3F)nccc2c1NC(=O)c1csc2c(N)ncnc12` [BsOH, 4-amino-N-(1-((3-chloro-2-fluorophenyl)amino)-6-methylisoquinolin-5-yl)thieno[3,2-d]pyrimidine-7-carboxamide], for which, in data set [2], the “H2O Solubility” value came to 30 µg/mL. Further, in [3], the “Water Content (%)” value was 0.9%.
